Measurements reported in PubChem BioAssay (NCI).
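Five concentrations, 48 hours, 96-well plates. GI50 marks 50% less growth. Definition used: TGI = concentration required for complete inhibition of growth.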

Assays:
Assay in all cases: NCI tumour cell line growth inhibition, 48 h
UO-31 renal = test system: UO-31 renal
OVCAR-8 ovarian = test system: OVCAR-8 ovarian
SK-MEL-2 melanoma = test system: SK-MEL-2 melanoma
T-47D breast = test system: T-47D breast
MDA-MB-435 = test system: MDA-MB-435
NCI-H23 lung = test system: NCI-H23 lung
HCT-15 colon = test system: HCT-15 colon
SN12C renal = test system: SN12C renal
SW-620 colon = test system: SW-620 colon
MDA-MB-231 breast = test system: MDA-MB-231 breast
BT-549 breast = test system: BT-549 breast
IGROV1 ovarian = test system: IGROV1 ovarian
M14 melanoma = test system: M14 melanoma
SF-295 CNS = test system: SF-295 CNS
NCI-H226 lung = test system: NCI-H226 lung
UACC-257 melanoma = test system: UACC-257 melanoma
SR leukemia = test system: SR leukemia
DU-145 prostate = test system: DU-145 prostate
MOLT-4 leukemia = test system: MOLT-4 leukemia
786-0 renal = test system: 786-0 renal
SNB-19 CNS = test system: SNB-19 CNS
K-562 leukemia = test system: K-562 leukemia
A549 NSCLC = test system: A549 NSCLC
A498 renal = test system: A498 renal
SK-MEL-28 melanoma = test system: SK-MEL-28 melanoma
KM12 colon = test system: KM12 colon
PC-3 prostate = test system: PC-3 prostate
EKVX NSCLC = test system: EKVX NSCLC
U251 CNS = test system: U251 CNS
UACC-62 melanoma = test system: UACC-62 melanoma
SF-539 CNS = test system: SF-539 CNS
OVCAR-5 ovarian = test system: OVCAR-5 ovarian
SK-OV-3 ovarian = test system: SK-OV-3 ovarian
COLO 205 colon = test system: COLO 205 colon
OVCAR-4 ovarian = test system: OVCAR-4 ovarian
LOX IMVI melanoma = test system: LOX IMVI melanoma
HS 578T breast = test system: HS 578T breast
SNB-75 CNS = test system: SNB-75 CNS
NCI-H522 lung = test system: NCI-H522 lung
HL-60(TB) leukemia = test system: HL-60(TB) leukemia
NCI-H460 lung = test system: NCI-H460 lung
SK-MEL-5 melanoma = test system: SK-MEL-5 melanoma
MALME-3M melanoma = test system: MALME-3M melanoma
HOP-62 NSCLC = test system: HOP-62 NSCLC
HT29 colon = test system: HT29 colon
RPMI-8226 leukemia = test system: RPMI-8226 leukemia
HOP-92 NSCLC = test system: HOP-92 NSCLC
HCT-116 colon = test system: HCT-116 colon
ACHN renal = test system: ACHN renal
RXF 393 renal = test system: RXF 393 renal
OVCAR-3 ovarian = test system: OVCAR-3 ovarian
NCI/ADR-RES ovarian = test system: NCI/ADR-RES ovarian
TK-10 renal = test system: TK-10 renal
HCC-2998 colon = test system: HCC-2998 colon
SF-268 CNS = test system: SF-268 CNS
CAKI-1 renal = test system: CAKI-1 renal
MCF7 breast = test system: MCF7 breast
CCRF-CEM leukemia = test system: CCRF-CEM leukemia

Cc1cc2c([nH]1)CSc1cc(S(=O)(=O)c3ccccc3)c(=O)[nH]c1-2
GI50 (UO-31 renal): 16.4 µM
TGI (UO-31 renal): > 93.6 µM
GI50 (OVCAR-8 ovarian): 1.54 µM
TGI (OVCAR-8 ovarian): > 100 µM
GI50 (SK-MEL-2 melanoma): 1.46 µM
TGI (SK-MEL-2 melanoma): > 83.2 µM
GI50 (T-47D breast): 0.35 µM
TGI (T-47D breast): 55.1 µM
GI50 (MDA-MB-435): 0.197 µM
TGI (MDA-MB-435): 0.46 µM
GI50 (NCI-H23 lung): 1.04 µM
TGI (NCI-H23 lung): 60.6 µM
GI50 (HCT-15 colon): 0.392 µM
TGI (HCT-15 colon): > 100 µM
GI50 (SN12C renal): 0.666 µM
TGI (SN12C renal): > 100 µM
GI50 (SW-620 colon): 0.306 µM
TGI (SW-620 colon): > 100 µM
GI50 (MDA-MB-231 breast): 1.63 µM
TGI (MDA-MB-231 breast): > 100 µM
GI50 (BT-549 breast): 0.732 µM
TGI (BT-549 breast): > 74.4 µM
GI50 (IGROV1 ovarian): 0.82 µM
TGI (IGROV1 ovarian): > 95.5 µM
GI50 (M14 melanoma): 0.289 µM
TGI (M14 melanoma): 2.16 µM
GI50 (SF-295 CNS): 2.4 µM
TGI (SF-295 CNS): 8.09 µM
GI50 (NCI-H226 lung): 14.6 µM
TGI (NCI-H226 lung): > 88.7 µM
GI50 (UACC-257 melanoma): 17.3 µM
TGI (UACC-257 melanoma): > 100 µM
GI50 (SR leukemia): 0.167 µM
TGI (SR leukemia): > 100 µM
GI50 (DU-145 prostate): 0.722 µM
TGI (DU-145 prostate): 13.2 µM
GI50 (MOLT-4 leukemia): 2.74 µM
TGI (MOLT-4 leukemia): > 100 µM
GI50 (786-0 renal): 14.9 µM
TGI (786-0 renal): > 100 µM
GI50 (SNB-19 CNS): 2.16 µM
TGI (SNB-19 CNS): > 100 µM
GI50 (K-562 leukemia): 2.56 µM
TGI (K-562 leukemia): > 100 µM
GI50 (A549 NSCLC): 43.8 µM
TGI (A549 NSCLC): > 100 µM
GI50 (A498 renal): 22.1 µM
TGI (A498 renal): 69.7 µM
GI50 (SK-MEL-28 melanoma): 4.67 µM
TGI (SK-MEL-28 melanoma): 42.5 µM
GI50 (KM12 colon): 0.461 µM
TGI (KM12 colon): 5.24 µM
GI50 (PC-3 prostate): 0.351 µM
TGI (PC-3 prostate): > 100 µM
GI50 (EKVX NSCLC): 21 µM
TGI (EKVX NSCLC): > 100 µM
GI50 (U251 CNS): 0.388 µM
TGI (U251 CNS): > 100 µM
GI50 (UACC-62 melanoma): 0.465 µM
TGI (UACC-62 melanoma): > 39.6 µM
GI50 (SF-539 CNS): 0.327 µM
TGI (SF-539 CNS): 1.82 µM
GI50 (OVCAR-5 ovarian): 17.6 µM
TGI (OVCAR-5 ovarian): > 100 µM
GI50 (SK-OV-3 ovarian): 21.9 µM
TGI (SK-OV-3 ovarian): > 100 µM
GI50 (COLO 205 colon): 14.1 µM
TGI (COLO 205 colon): 35.2 µM
GI50 (OVCAR-4 ovarian): 0.553 µM
TGI (OVCAR-4 ovarian): > 86.2 µM
GI50 (LOX IMVI melanoma): 0.61 µM
TGI (LOX IMVI melanoma): > 73.2 µM
GI50 (HS 578T breast): 1.8 µM
TGI (HS 578T breast): 9.43 µM
GI50 (SNB-75 CNS): 1.56 µM
TGI (SNB-75 CNS): > 24 µM
GI50 (NCI-H522 lung): 3.77 µM
TGI (NCI-H522 lung): 36.7 µM
GI50 (HL-60(TB) leukemia): 0.249 µM
GI50 (NCI-H460 lung): 20.6 µM
TGI (NCI-H460 lung): 68.5 µM
GI50 (SK-MEL-5 melanoma): 0.5 µM
TGI (SK-MEL-5 melanoma): 16.1 µM
GI50 (MALME-3M melanoma): 0.568 µM
TGI (MALME-3M melanoma): 75.9 µM
GI50 (HOP-62 NSCLC): 2.09 µM
TGI (HOP-62 NSCLC): > 100 µM
GI50 (HT29 colon): 0.316 µM
GI50 (RPMI-8226 leukemia): 0.806 µM
TGI (RPMI-8226 leukemia): > 100 µM
GI50 (HOP-92 NSCLC): 0.139 µM
TGI (HOP-92 NSCLC): 1.32 µM
GI50 (HCT-116 colon): 0.368 µM
TGI (HCT-116 colon): 10.9 µM
GI50 (ACHN renal): 13.3 µM
TGI (ACHN renal): > 100 µM
GI50 (RXF 393 renal): 4.64 µM
TGI (RXF 393 renal): > 61.5 µM
GI50 (OVCAR-3 ovarian): 0.246 µM
TGI (OVCAR-3 ovarian): 0.615 µM
GI50 (NCI/ADR-RES ovarian): 0.445 µM
TGI (NCI/ADR-RES ovarian): 2.17 µM
GI50 (TK-10 renal): 21.7 µM
TGI (TK-10 renal): > 100 µM
GI50 (HCC-2998 colon): 3.42 µM
TGI (HCC-2998 colon): > 42.6 µM
GI50 (SF-268 CNS): 2.39 µM
TGI (SF-268 CNS): > 80.9 µM
GI50 (CAKI-1 renal): 4.4 µM
TGI (CAKI-1 renal): > 58.4 µM
GI50 (MCF7 breast): 0.263 µM
TGI (MCF7 breast): 16.1 µM
GI50 (CCRF-CEM leukemia): 0.452 µM
TGI (CCRF-CEM leukemia): > 100 µM
